# Measured values from publication PMC6274376, “Naturally Inspired Molecules as Multifunctional Agents for Alzheimer’s Disease Treatment” (Molecules, 2016).
# Where “and” joins values, the source holds several entries; their conditions need not be identical. Identical values can stand only once. Counter-ions that a name gives are not always drawn.
# Key:
# hBACE-1 = hBACE-1 (Homo sapiens, UniProt P56817); experiment: BACE-1 FRET inhibition assay; assay type: biochemical; details: for IC50: FRET assay, average of multiple experiments each in triplicate, ± SEM; for inhibition at 5 µM: tested at 5 µM concentration
# Procedure: The new benzophenone-based hybrids 3–7 presented in this study were first evaluated for their in vitro ability to inhibit the enzymatic activity of BACE-1, by means of a biochemical assay performed using the fluorescence resonance energy transfer (FRET) methodology and in comparison to inhibitor IV [22] as reference compound (Table 1). For the most interesting compounds 3–5, endowed with the orto-hydroxycarbonyl substitution pattern, the neuroprotective potential was determined as lack of toxic effects on neuronal cell viability and as Cu(II) chelating activity (Table 2); moreover, their direct interactions with Cu(II) ion were confirmed by a UV-vis spectrophotometric study.
# Inhibition studies were performed using the following procedure: 5 μL of test compound (or DMSO) were pre-incubated with 175 μL of enzyme (10.37 nM, final concentration) in 20 mM NaOAc pH 4.5 containing CHAPS (0.1% w/v) for 1 h at r.t.; M-2420 (3 μM, final concentration) was then added and left to react for 15 min. The fluorescence signal was read at λem = 405 nm (λexc = 320 nm). DMSO concentration in the final mixture was maintained below 5% (v/v) to guarantee no significant loss of enzyme activity.Fluorescence intensities with and without inhibitor were compared and the percent inhibition due to the presence of test compounds was calculated. The background signal was measured in control wells containing all the reagents, except theenzymeand subtracted. The % inhibition due to the presence of increasing test compound concentration was calculated by the following expression: 100 − (IFi/IFo × 100) where IFi and IFo are the fluorescence intensities obtained for the enzyme in the presence and in the absence of inhibitor, respectively. Inhibition curves were obtained for each compound by plotting the % inhibition versus the logarithm of inhibitor concentration in the assay sample. The linear regression parameters were determined and the IC50 extrapolated (GraphPad Prism 4.0, GraphPad Software Inc., San Diego, CA, USA).
# [1] = Cu(II) chelating assay (bathocuproinedisulfonic acid disodium salt, BCS); assay type: physicochemical
# Procedure: Data were expressed as chelating activity percentage (Table 2).
# The Cu(II) chelating activity of the compounds was determined using the bathocuproinedisulfonic acid disodium salt (BCS) assay as previously described. Briefly, 50 μL of a 0.25 mM CuSO4 solution were mixed for 2 min with 50 μL of 5–20 µM compound solution in 100 µL of HEPES buffer (15 mM). Hydroxylamine (1 mM) was added after 2 min in order to reduce non-chelated cupric ions into cuprous ones. Finally, 50 μL of BCS (5 mM) or water (blank) was added and the absorbance at 490 nm was measured by spectrophotometry using a multilabel plate reader (VICTOR™ X3, PerkinElmer, Waltham, MA, USA) immediately and at 5 min. Na2EDTA (5–20 µM) was used as a positive control. The ability of the test compounds to chelate cupric ions was calculated using the following equation: chelating activity (%) = [1 − (Abs BCS + compound/Abs BCS) × 100].
# SH-SY5Y cells = experiment: Neurotoxicity, MTT cell viability assay; assay type: cell-based, human; details: for IC50: Homo sapiens, SH-SY5Y cells, 24 h treatment, 1.25–40 µM, MTT, mean ± SD
# Procedure: Cytotoxic effects in several in vitro or in vivo models have been reported for some chalcones. Therefore, to discriminate the neurotoxic concentrations of the conjugates 3–5 we evaluated the cell viability of human neuronal SH-SY5Y cells after 24 h treatment with these conjugate at different concentrations (1.25–40 μM) using the MTT assay. […] Thus, the presence of an α,β-unsatured carbonyl fragment seems to positively influence the degree of neuronal toxicity, leading to molecules endowed with a favorable SI.
# Human neuronal (SH-SY5Y) cells were routinely grown in Dulbecco’s modified Eagle’ Medium (DMEM) supplemented with 10% fetal bovine serum, 2 mmol/L-glutamine, 50 U·mL^−1penicillin and 50 μg·mL^−1streptomycin at 37 °C in a humidified incubator with 5% CO2.
# To evaluate the neurotoxicity of compounds, the SH-SY5Y cells were seeded in 96-well plates at 2 × 10^4 cells/well, incubated for 24 h and subsequently treated with various concentrations of compounds (1.25–40 µM) for 24 h at 37 °C in 5% CO2;. The cell viability in terms of mitochondrial metabolic function was evaluated by the reduction in 3-(4,5-dimethyl-2-thiazolyl)-2,5-diphenyl-2H-tetrazolium bromide (MTT) to formazan as previously described. The quantity of formazan was directly proportional to the number of viable cells. Briefly, the treatment medium was replaced with MTT (5 mg/mL) in phosphate-buffered saline (PBS) for 2 h at 37 °C in 5% CO2. After washing with PBS, the formazan crystals were dissolved with isopropanol. The amount of formazan was measured (570 nm, reference filter 690 nm) using a multilabel plate reader (VICTOR™ X3, PerkinElmer, Waltham, MA, USA). The neurotoxicity is expressed as concentration of compound resulting in 50% inhibition of cell viability.
# [2] = UV-vis spectrophotometric evaluation of Cu(II) ion complexation; assay type: physicochemical
# Text: Chalcone conjugates 4 and 5 were investigated to evaluate their ability to complex Cu(II) ions via a UV-vis spectrophotometric study.
# Therefore, we decided to carry on the spectrophotometric measurements in a mixed solvent: aqueous MOPS aqueous buffer […] pH 7.4 /DMF in 1:4 ratio, respectively. Flavonoids bearing the 4-carbonyl-5-hydroxyl chelation site have characteristic UV-vis spectra, characterized by a wide and non-structured band centred around 370–380 nm, with a molar extinction coefficient of 50,000 cm^−1·M^−1 that is attributed to HOMO-LUMO transition with a π-π* character.
# All reagents and solvents were used as received (from Aldrich, St. Louis, MO, USA) without further purification: copper(II) sulphate hydrate (≥98%), 3-(N-Morpholino)propanesulfonic acid (MOPS, ≥99.5%), sodium hydroxide (≥98%), N,N-dimethylformamide (spectroscopic grade, DMF). A Milli-Q system (Millipore, Billerica, MA, USA) was used for the purification of water (resistivity ≥18.2 MΩ). MOPS bufferstock solution were obtained by a dissolution in Milli-Q water of 3-(N-morpholino)propane sulphonic acid to a final concentration of 10^−3 M. The pH was corrected with a solution of sodium hydroxide 1 N to a value of pH 7.4. Absorption spectra were recorded on a Perkin-Elmer Lambda 45 spectrophotometer at room temperature. Spectrophotometric titrations were performed as follows: stock solutions of ligands (ca. 10^−3 M) were prepared in DMF, diluted down to the desired concentration, in the quartz cuvette, in MOPS buffer 10^−3 M pH 7.4/DMF (1:4) to a final volume of 2.5 mL and then titrated by adding increasing amounts of Cu(II) (3.04 × 10^−3 Min DMF).
# CatD = CatD (Homo sapiens, UniProt P07339); experiment: CatD inhibition; assay type: biochemical; details: up to 0.5 μM
# [3] = 5 µM compound, fixed 40 µM CuSO4
# [4] = 10 µM compound, fixed 40 µM CuSO4
# [5] = 20 µM compound, fixed 40 µM CuSO4, mean ± SD
# Chain of hBACE-1 (P56817 46-501): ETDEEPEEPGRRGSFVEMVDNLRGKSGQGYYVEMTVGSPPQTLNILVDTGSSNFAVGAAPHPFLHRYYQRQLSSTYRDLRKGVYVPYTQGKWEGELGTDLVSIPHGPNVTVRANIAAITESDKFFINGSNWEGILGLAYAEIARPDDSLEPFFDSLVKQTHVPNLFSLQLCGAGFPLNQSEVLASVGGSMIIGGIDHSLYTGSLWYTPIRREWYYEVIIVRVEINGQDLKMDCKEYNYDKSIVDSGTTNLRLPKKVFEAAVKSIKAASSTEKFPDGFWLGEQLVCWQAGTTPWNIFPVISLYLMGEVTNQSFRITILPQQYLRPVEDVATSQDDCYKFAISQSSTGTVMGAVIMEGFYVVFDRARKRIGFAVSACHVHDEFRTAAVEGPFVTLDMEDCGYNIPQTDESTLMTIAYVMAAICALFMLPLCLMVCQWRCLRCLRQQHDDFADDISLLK
# Chain of CatD (P07339 65-412): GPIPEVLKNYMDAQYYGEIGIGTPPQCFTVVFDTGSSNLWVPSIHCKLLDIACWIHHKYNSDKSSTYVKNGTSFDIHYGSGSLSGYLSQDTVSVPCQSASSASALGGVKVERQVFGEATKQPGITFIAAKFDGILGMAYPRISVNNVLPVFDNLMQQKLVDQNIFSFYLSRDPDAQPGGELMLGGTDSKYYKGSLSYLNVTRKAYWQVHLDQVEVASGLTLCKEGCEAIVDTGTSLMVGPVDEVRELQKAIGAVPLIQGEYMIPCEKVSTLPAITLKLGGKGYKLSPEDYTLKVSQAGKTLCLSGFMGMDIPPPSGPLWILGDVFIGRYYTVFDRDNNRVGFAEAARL
molecule,measurement,setting,value
"COc1cc(/C=C/C(=O)c2ccc(OCCOc3ccc(C(=O)c4ccc(CN(C)Cc5ccccc5)cc4)cc3)cc2O)cc(OC)c1OC [Compound 4, E-1-{4-[2-(4-4-Benzylmethylaminomethylbenzoylphenoxy)ethoxy]-2-hydroxyphenyl}-3-(3,4,5-trimethoxy-phenyl)prop-2-en-1-one]",IC50,hBACE-1,1.06 ± 0.15 µM
same,Cu(II)-Chelating Activity,[1]; [3],7.16%
same,Cu(II)-Chelating Activity,[1]; [4],10.77%
same,Cu(II)-Chelating Activity,[1]; [5],15.07% and 15.07 ± 1.32%
same,IC50,SH-SY5Y cells,23.7 ± 3.54 µM
same,selectivity index SI,SH-SY5Y cells; neurotoxicity IC50 versus BACE-1 IC50,around 22
same,ability to complex Cu(II) ions,"[2]; UV-vis spectra, MOPS buffer pH 7.4/DMF 1:4",able to chelate the selected ion
same,association constant (order of magnitude),"[2]; estimated from titration data, 1:1 complex stoichiometry with Cu(II), MOPS pH 7.4/DMF 1:4",~10^4
COc1ccc(C(=O)c2ccc(CN(C)Cc3ccccc3)cc2)cc1OC [Compound 1],inhibition at 5 µM,hBACE-1,20%
same,CatD inhibition,CatD,not inhib.
CN(Cc1ccccc1)Cc1ccc(C(=O)c2ccc(OCCOc3ccc4c(c3)OC(c3cccc5ccccc35)CC4=O)cc2)cc1 (centres unmarked) (as salt: HCl) [Compound 7],melting point,,172 to 195 °C
"CC(=O)c1ccc(OCCOc2ccc(C(=O)c3ccc(CN(C)Cc4ccccc4)cc3)cc2)cc1O (as salt: HCl) [Compound 3, 1-{4-[2-(4-4-Benzylmethylaminomethylbenzoylphenoxy)ethoxy]-2-hydroxyphenyl}ethan-1-one]",melting point,,264 to 268 °C
"CN(Cc1ccccc1)Cc1ccc(C(=O)c2ccc(OCCOc3ccc(C(=O)/C=C/c4cccc5ccccc45)c(O)c3)cc2)cc1 (as salt: HCl) [Compound 5, E-1-{4-[2-(4-4-Benzylmethylaminomethylbenzoylphenoxy)ethoxy]-2-hydroxyphenyl}-3-(naphthalen-1-yl)-prop-2-en-1-one]",melting point,,197 to 199 °C
"disodium salt of ethylene diaminetetraacetic acid [Na2EDTA, reference compound]",Cu(II)-Chelating Activity,[1]; [5],17.10 ± 1.44%
"COc1cc(C2CC(=O)c3ccc(OCCOc4ccc(C(=O)c5ccc(CN(C)Cc6ccccc6)cc5)cc4)cc3O2)cc(OC)c1OC (centres unmarked) (as salt: HCl) [Compound 6, 7-{2-[4-(4-Benzylmethylaminomethylbenzoyl)phenoxy]ethoxy}-2-(3,4,5-trimethoxyphenyl)chroman-4-one]",melting point,,182 to 194 °C
"COc1cc(/C=C/C(=O)c2ccc(OCCO)cc2O)cc(OC)c1OC [Compound 2, (E)-1-[2-Hydroxy-4-(2-hydroxyethoxyphenyl)]-3-(3,4,5-trimethoxyphenyl)prop-2-en-1-one]",inhibition at 5.2 µM,hBACE-1; at 5.2 μM,35.9%
same,inhibition at 5 µM,hBACE-1,20%
same,melting point,,186 to 188 °C
CN(Cc1ccccc1)Cc1ccc(C(=O)c2ccc(OCCOc3ccc4c(c3)OC(c3cccc5ccccc35)CC4=O)cc2)cc1 (centres unmarked) [Compound 7],IC50,hBACE-1,3.97 ± 0.33 µM
"CC(=O)c1ccc(OCCOc2ccc(C(=O)c3ccc(CN(C)Cc4ccccc4)cc3)cc2)cc1O [Compound 3, 1-{4-[2-(4-4-Benzylmethylaminomethylbenzoylphenoxy)ethoxy]-2-hydroxyphenyl}ethan-1-one]",IC50,hBACE-1,3.18 ± 0.21 µM
same,Cu(II)-Chelating Activity,[1]; [3],0.00%
same,Cu(II)-Chelating Activity,[1]; [4],3.49%
same,Cu(II)-Chelating Activity,[1]; [5],5.37% and 5.37 ± 0.16%
same,IC50,SH-SY5Y cells,10.9 ± 1.63 µM
"COc1cc(/C=C/C(=O)c2ccc(OCCOc3ccc(C(=O)c4ccc(CN(C)Cc5ccccc5)cc4)cc3)cc2O)cc(OC)c1OC (as salt: HCl) [Compound 4, E-1-{4-[2-(4-4-Benzylmethylaminomethylbenzoylphenoxy)ethoxy]-2-hydroxyphenyl}-3-(3,4,5-trimethoxy-phenyl)prop-2-en-1-one]",melting point,,220 to 222 °C
"COc1cc(C2CC(=O)c3ccc(OCCOc4ccc(C(=O)c5ccc(CN(C)Cc6ccccc6)cc5)cc4)cc3O2)cc(OC)c1OC (centres unmarked) [Compound 6, 7-{2-[4-(4-Benzylmethylaminomethylbenzoyl)phenoxy]ethoxy}-2-(3,4,5-trimethoxyphenyl)chroman-4-one]",IC50,hBACE-1,1.56 ± 0.23 µM
